Test results reported in US8242280B2, “Fused ring heterocycle kinase modulators” (SGX Pharmaceuticals, Inc., priority 2007, dated 2012).

Experiments:
[1] = target: T1, unphosphorylated T315I Abl kinase domain (Mus musculus, UniProt P00520, T315I); experiment: c-Abl T315I 0P bioassay (pyruvate kinase/lactate dehydrogenase coupled enzyme assay); assay type: biochemical; settings: zero phosphorylation state (0P), 10 μM ATP, read-out: AbI T315I 0P IC50
T1 construct: purified and unphosphorylated T315I Abl kinase domain; made in house; host or cells: E. coli BL21(DE3) (Codon+RIL or pSA0145 strain)
T1 sequence (P00520 242-493 T315I limits assumed): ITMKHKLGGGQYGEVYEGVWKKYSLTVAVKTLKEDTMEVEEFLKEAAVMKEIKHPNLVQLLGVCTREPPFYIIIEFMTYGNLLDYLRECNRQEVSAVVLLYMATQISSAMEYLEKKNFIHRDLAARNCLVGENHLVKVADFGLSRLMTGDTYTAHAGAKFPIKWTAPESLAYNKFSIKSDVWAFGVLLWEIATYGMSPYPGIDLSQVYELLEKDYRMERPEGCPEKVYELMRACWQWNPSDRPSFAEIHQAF
From the text: Although the first of these examples uses the kinase domain of a mutant form of Abl T315I (“Abl T315I KD”), the kinase assays may use various forms of mutant and wild type enzymes, including, for example, the entire protein, the kinase domain, or a portion thereof (e.g. Abl Y393F). The kinases used in the assays may also be of varying phosphorylation states. In the c-Abl example, a mutant kinase at a zero phosphorylation state was used. c-Abl Pyruvate Kinase/Lactate Dehydrogenase Coupled Enzyme Assay
In the c-Abl Pyruvate Kinase (PK)/Lactate Dehydrogenase (LDH) Coupled Assay the protein kinase dependant phosphorylation of a substrate peptide was coupled to the oxidation of NADH. The oxidation of NADH to NAD+ was detected by monitoring a decrease in absorbance at 340 nm.
Materials: Abl substrate peptide=EAIYAAPFAKKK (SEQ ID NO: 1)—OH (Biopeptide, San Diego, Calif.); pNADH (Sigma Cat#N-8129, FW=709.4); 2M MgC12; 1M HEPES buffer, pH 7.5; Phosphoenolpyruvate (PEP) (Sigma Cat#P-7002, FW=234); Lactate dehydrogenase (LDH) (Worthington Biochemical Cat#2756); Pyruvate Kinase (PK) (Sigma Cat#P-9136); ATP (Sigma Cat#A-3377, FW=551); Greiner 384-well UV star plate; and purified and unphosphorylated T315I Abl kinase domain.
Stock Solutions: 10 mM NADH (7.09 mg/ml in miliQH2O) made fresh daily; 10 mM Abl substrate peptide (13.4 mg/ml in miliQH2O) stored at −20° C.; 100 mM HEPES buffer, pH 7.5 (5 ml 1M stock+45 ml miliQH2O); 100 mM MgCl2 (5 ml 2M MgCl2+95 ml dH2O); 100 MM PEP (23.4 mg/ml in dH2O) stored at −20° C.; 10 mM ATP (5.51 mg/ml in dH2O) stored at −20° C. (diluted 50 μl into total of 10 ml miliQH2O daily=50 μM ATP working stock); 1000 U/ml PK (U/mg varies with lot) flash-frozen under liquid N2 and stored at −80° C.; and 1000 U/ml LDH (U/mg varies with lot) flash-frozen under liquid N2 and stored at −80° C.
Standard Assay Setup for 384-well format (50 μl reaction): 300 μM NADH; 10 mM MgCl2; 2 mM PEP; 45U/ml PK; 60 U/ml LDH; 200 μM Abl substrate peptide; 2.5 μl test compound (in DMSO); 2 μg/ml Abl kinase domain; 10 μM ATP; 100 mM HEPES buffer. Positive controls contained DMSO with no test compound. Negative controls contained 5 μl of 0.5M EDTA (50 mM in the assay). The dephosphorylated form of the c-Abl T315I mutant was used in the biochemical screening assays. The kinase reaction was initiated at time t=0 by the addition of ATP.
Activity was measured by following the time-dependent loss of NADH by absorbance spectroscopy at 340 nm. The linear portion of the resulting progress curve was then analyzed by linear regression to get the activity in absorbance units/time, reported as the slope of that best fit line (moles/unit time can be calculated from using molar extinction coefficient for NADH at 340 nm, 6250M^−1 cm^−1).
Data was evaluated using the equation: Z′=1−[3*(σ++σ−)/|μ+−μ−|](Zhang, et al., 1999 J Biomol Screening 4(2) 67-73), where μ denotes the mean and σ the standard deviation. The subscript designates positive or negative controls. The Z′ score for a robust screening assay should be ≧0.50. The typical threshold=μ+−3*σ+. Any value that falls below the threshold was designated a “hit”.
Dose response was analyzed using the equation: y=min+{(max−min)/(1+10^[compound]−logIC50)}, where y is the observed initial slope, max=the slope in the absence of inhibitor, min=the slope at infinite inhibitor, and the IC50 is the [compound] that corresponds to ½ the total observed amplitude (Amplitude=max−min).
To measure modulation, activation, or inhibition of Abl KD, a test compound was added to the assay at a range of concentrations. Inhibitors may inhibit Abl KD activity at an IC50 in the micromolar range, the nanomolar range, or, for example, in the subnanomolar range.
An open-reading frame for c-Abl was amplified from a Mus musculus (mouse) cDNA library prepared from freshly harvested mouse liver using a commercially available kit (invitrogen) by PCR using the following primers: […]
The c-Abl T315I KD (kinase domain) was purified as follows. […]

Ba/F3 cells, ABL1 WT = Ba/F3 cells, ABL1 WT (Homo sapiens, UniProt P00519); experiment: 96-well XTT cell survival assay, Ba/F3 ABL1 WT; assay type: cell-based; settings: 72 hours, read-out: ABL1 WT XTT [Ba/F3] IC50
Description: (§1) MV4-11 and THP cells were maintained in Iscove's Modified Dulbecco's Medium supplemented with 10% fetal bovine serum (FBS) and penicillin/streptomycin, Ba/F3 cells were maintained in RPMI 1640 supplemented with 10% FBS, penicillin/streptomycin and 5 ng/ml recombinant mouse IL-3.
(§2) Compounds were tested in the following assays in duplicate.
(§3) 96-well XTT assay: Cells (e.g. BaF3 315I, M351I, or E255K cells) were grown in growth media containing various concentrations of compounds (duplicates) on a 96-well plate for 72 hours at 37° C. The starting cell number was 5000-8000 cells per well and volume was 120 μl. At the end of the 72-hour incubation, 40 μl of XTT labeling mixture (50:1 solution of sodium 3′-[1-(phenylamino-carbonyl)-3,4-tetrazolium]-bis(4-methoxy-6-nitro)benzene sulfonic acid hydrate and Electron-coupling reagent: PMS (N-methyl dibenzopyrazine methyl sulfate) were added to each well of the plate. After an additional 2-6 hours of incubation at 37° C., the absorbance reading at 405 nm with background correction at 650 nm was measured with a spectrophotometer.

Ba/F3 cells, ABL1 T315I = Ba/F3 cells, ABL1 T315I (Homo sapiens, UniProt P00519, T315I, cells depend on it); experiment: 96-well XTT cell survival assay, Ba/F3 ABL1 T315I; assay type: cell-based; settings: 72 hours, read-out: ABL1 T315I XTT [Ba/F3] IC50
Description: as §1, §2, §3

Row | IC50 [1] [nM] | Compound | GI50 (Ba/F3 cells, ABL1 WT) [nM] | GI50 (Ba/F3 cells, ABL1 T315I) [nM]
1 | < 50 | COc1ccccc1-c1c[nH]c2ncc(-c3cccc(C(N)CC(=O)N(C)C)c3)cc12 (stereo not drawn) | > 1000 | > 1000
2 | < 50 | COc1ccccc1-c1c[nH]c2ncc(-c3cccc(C(N)CC(=O)N(C)CCN(C)C)c3)cc12 (stereo not drawn) | > 1000 | > 1000
3 | < 50 | COc1ccccc1-c1c[nH]c2ncc(-c3cccc(C(N)CC(=O)N4CCC[C@@H]4CO)c3)cc12 (stereo partly drawn) | > 1000 | > 1000
4 | < 50 | COc1ccccc1-c1n[nH]c2ncc(-c3cccc(C(O)C(=O)N(C)C)n3)cc12 (stereo not drawn) | > 1000 | > 1000
5 | < 50 | COc1ccccc1-c1n[nH]c2ncc(-c3cccc(C(O)C(=O)N(C)CCN(C)C)n3)cc12 (stereo not drawn) | > 1000 | > 1000
6 | < 50 | COc1ccccc1-c1c[nH]c2ncc(-c3cccc(C(O)C(=O)N(C)C)n3)cc12 (stereo not drawn) | > 1000 | > 1000
7 | < 50 | COc1ccccc1-c1c[nH]c2ncc(-c3cccc(C(O)C(=O)N(C)CCN(C)C)n3)cc12 (stereo not drawn) | > 1000 | > 1000
8 | < 50 | COc1ccccc1-c1c[nH]c2ncc(-c3cccc(C(O)C(=O)N(C)CCNC4CC4)c3)cc12 (stereo not drawn) | < 1000 | < 1000
9 | < 50 | COc1ccccc1-c1c[nH]c2ncc(-c3cncc(C(O)C(=O)N(C)C(C)C)c3)cc12 (stereo not drawn) | > 1000 | < 1000
10 | < 50 | CCN(C)C(=O)C(O)c1cncc(-c2cnc3[nH]cc(-c4ccccc4OC)c3c2)c1 (stereo not drawn) | < 1000 | < 1000
11 | < 50 | COc1ccccc1-c1c[nH]c2ncc(-c3cncc(C(O)C(=O)N(C)Cc4ccnn4C)c3)cc12 (stereo not drawn) | < 1000 | < 1000
12 | 50 to 500 | COc1ccccc1-c1c[nH]c2ncc(-c3cc(C(O)C(=O)N(C)C)ncn3)cc12 (stereo not drawn) | > 1000 | > 1000
13 | < 50 | CC[C@H](O)[C@@H](O)c1cccc(-c2cnc3[nH]cc(-c4ccccc4OC)c3c2)c1 | < 1000 | < 1000
14 | < 50 | COc1ccccc1-c1c[nH]c2ncc(-c3ccnc(C(O)C(=O)N(C)C)c3)cc12 (stereo not drawn) | > 1000 | > 1000
15 | < 50 | COc1ccccc1-c1c[nH]c2ncc(-c3cccc(C(F)C(=O)N(C)C)c3)cc12 (stereo not drawn) | > 1000 | > 1000
16 | < 50 | COc1ccccc1-c1c[nH]c2ncc(-c3cc(C(O)C(=O)N(C)C)ccn3)cc12 (stereo not drawn) | > 1000 | > 1000
17 | 50 to 500 | COc1ccccc1-c1c[nH]c2ncc(-c3ccnc(C(O)C(=O)N(C)C)n3)cc12 (stereo not drawn) | > 1000 | > 1000
18 | < 50 | CN(C)C(=O)C(O)c1cncc(-c2cnc3[nH]cc(-c4ccc(Cl)cc4)c3c2)c1 (stereo not drawn) | < 1000 | > 1000
19 | < 50 | COc1ccccc1-c1c[nH]c2ncc(-c3cncc([C@@H](O)C(=O)N(C)C)c3)cc12 | < 1000 | < 1000
20 | < 50 | COc1ccccc1-c1c[nH]c2ncc(-c3cncc([C@H](O)C(=O)N(C)C)c3)cc12 | < 1000 | < 1000
21 | < 50 | CN(C)C(=O)C(O)c1cncc(-c2cnc3[nH]cc(-c4ccc(Cl)c(Cl)c4)c3c2)c1 (stereo not drawn) | > 1000 | > 1000
22 | < 50 | COc1ccc(F)cc1-c1c[nH]c2ncc(-c3cncc(C(O)C(=O)N(C)C)c3)cc12 (stereo not drawn) | < 1000 | < 1000
23 | < 50 | COc1ccccc1-c1c[nH]c2ncc(-c3cncc(C(=O)C(=O)N(C)C)c3)cc12 | < 1000 | < 1000
24 | < 50 | COc1ccc(F)cc1-c1c[nH]c2ncc(-c3cc(C(O)C(=O)N(C)C)c[n+]([O-])c3)cc12 (stereo not drawn) | > 1000 | > 1000
25 | < 50 | Cc1ccc(-c2c[nH]c3ncc(-c4cncc(C(O)C(=O)N(C)C)c4)cc23)cc1 (stereo not drawn) | > 1000 | > 1000
